Broadly, the viability is a per cent measure of how many cells are alive, often set against a control.

In series [1] the test system is P. berghei liver stage parasites. The series is described as follows: P. berghei liver stage parasite size and number (fluorescence microscopy, coverslips). The class given is cell-based, Plasmodium berghei. The following applies: for Normalised mean size of liver stage parasites, percentage of the solvent control: per coverslip, source data Fig. 3C. As to the method:
Uninfected wells served as a control for background luminescence. […] No other manipulations were performed.
(§1) Appendix Fraser/Curtis et al.
For measurement of parasite size and number, 20,000 Huh7 cells were seeded onto collagen-coated coverslips on the day prior to infection. As above, 10,000 – 20,000 sporozoites were added per slide, allowed to invade for 60 minutes after centrifugation, and then incubated for […]
Infected cells were fixed with 3% paraformaldehyde in PBS, permeabilized with 0.3% v/v Triton X-100, and labelled with 1:1,000 polyclonal chicken anti-GFP (Abcam ab13970), 1:2,000 goat anti-chicken Alexa […]
intrinsic GFP fluorescence could be detected, as well as Fluoromount-G® containing 4′,6-diamidino-2-phenylindole (DAPI; Southern Biotech), to stain parasite and host cell nuclei.
Images were collected on a Zeiss Axio Observer Z2 microscope with a Zeiss AxioCam MRm at 200× or 400× (for quantification) or 630× (for cell images) magnification, with a resolution of […], 163 nm or 102 nm per pixel respectively. Alexa Fluor™ 546 fluorescence was detected at 546/13 nm excitation and 675/35 nm emission. […]
fluorescence was detected at 470/20 nm excitation and 525/25 nm emission. DAPI fluorescence (nucleic acid) was detected at 359/24 nm ex and 445/25 nm em. For quantification, all cells on each coverslip were imaged under the same settings for each experiment. P. berghei liver stage size was measured as described (24) using Fiji ImageJ (25). Liver-stage parasites were identified and delineated in fluorescent images using defined threshold levels, and the identified fluorescent areas were used to measure parasite area. The number of parasites on each coverslip was also counted. […]
manipulations were performed.

Series [2] can be described thus: Human hepatoma viability assay (CellTiter-Blue). The format is cell-based. The settings on record: human, replicate data points, read-out: Huh7 viability, dose-response data points (Figure 3F); for viability at 48 h, 0.137174 µM: 0.137174210 uM. Summed up:
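Huh7 cells (10,000/well) were seeded and treated the next day with serially diluted compound or DMSO, with media partially renewed with fresh dilutions over two days.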

The test system of series [3] is P. falciparum CAM3.IIREV ring stages (0–3 h post invasion). The series is described as follows: Plasmodium falciparum ring stage survival assay, susceptible revertant strain. The class given is cell-based. The method, then:
Following tight synchronisation using sorbitol and Percoll® floatation, ring stage CAM3.II and CAM3.IIREV parasites (0–3 h post invasion) at 1% parasitaemia and 2% haematocrit were incubated with 700 nM of compounds or solvent-only controls for exactly 6 h, before removing the drug, thoroughly washing in RPMI with HEPES, and returning to culture conditions for a further 66 h. Some cells were treated with 700 nM artesunate for 72 h as a no-growth control. DNA replication (indicating growth) was measured at the specified time using SYBR Safe DNA Stain. Microscope slide smears of each condition were stained with 10% v/v Giemsa and examined under a light microscope (×1000 magnification); with ‘viable’ (morphologically normal) and ‘non-viable’ (morphologically aberrant; vacuolated or pyknotic) parasites distinguished according to standard protocol (Witkowski et al, [2013]). Images were captured using a Leica ICC50 camera, with a resolution of 76 nm per pixel, and cropped from larger images using Fiji ImageJ.
as §1
Cells were detached from a flask using 0.25% Trypsin with 0.2 g/L EDTA (Sigma T4049) and washed with culture media containing no phenol red. Cells were incubated with a serial dilution of each compound, or media/DMSO alone. The protein synthesis inhibitor cycloheximide (Sigma 01810) at 10 µg/mL was used as a positive control to determine background absorbance. 5,000 cells were seeded in each well. After 96 hours, 0.45 mg/mL methylthiazolyldiphenyl-tetrazolium bromide (MTT; Sigma M2128) was added and incubated for a further two hours, before mixing 1.1:1 with 10% w/v sodium dodecyl sulfate (SDS) to solubilise crystals and freezing the plate at -18 °C to stop the assay. Plates were defrosted at room temperature and absorbance was read at 570 nm in an Infinite M1000 pro plate reader […]
Plasmodium falciparum Ring Stage Survival Assay
Ring stage survival assays were conducted according to standard protocols with some modifications (27, 28). CAM3.11 and CAM3.11REV parasites were sorbitol synchronised twice, 12 hours apart, and then incubated for a further 30 hours until the majority of the parasites were mature schizonts (with clearly separated nuclei). Pelleted RBCs were incubated at 37 °C with heparinised RPMI for 15 minutes, and then centrifuged over 75% Percoll® in PBS for 15 minutes at 1,000 g. Mature schizonts were collected, washed with warm RPMI, and cultured for exactly three hours with fresh uRBCs and culture media. After 3 hours, the cultures were sorbitol synchronised and incubated in duplicate with 700 nM of artesunate, PAYb076a, GGA5, HJB8a53, a DMSO solvent-only control or media alone for exactly six hours, before removing the drug, washing in RPMI, and returning to culture conditions. Samples of each cell suspension were transferred to a -18 °C freezer at the start of the assay (time = 0) or treated for the entire 72 hours with 700 nM artesunate to determine background fluorescence under no-growth conditions. After a further 66 hours of incubation (totalling 72 hours), cells were […]
resuspended, and a sample from each well was transferred to a fresh plate and frozen at -18 °C.
Microscope slide smears were made using the remaining cells and stained with 10% v/v Giemsa. Plates were thawed and SYBR Safe DNA Gel Stain (final concentration 1/10,000) diluted in lysis buffer (as above) was added for DNA detection at 490 nm excitation / 520 nm emission on a FLUOstar Optima fluorescence plate reader. Parasite proliferation and viability were also assessed using Giemsa-stained smears examined under a light microscope (1,000× magnification); with ‘viable’ and ‘non-viable’ (vacuolated or pyknotic) parasites distinguished according to standard protocol. Images were captured using a Leica ICC50 camera, with a resolution of 76 nm per pixel.
Growth inhibition data were normalised by subtracting background fluorescence, […]

SMILES strings stand for the structures. Several values for one entry are separate records, joined by “and”; a condition that tells them apart may be missing. Identical values can stand only once. Like-named read-outs stand apart in the source and are kept apart here.

As to `COc1cc(NC(C)CCCNC(=O)CCC(=O)O[C@H]2CC[C@H]3[C@@H]4CC=C5C[C@@H](O)CC[C@]5(C)[C@H]4CC[C@]23C)c2ncccc2c1` (stereo partly drawn) [C-17-PQ], the “Reduction of parasite size (area) compared to untreated parasites” value in series [1] (0.3 µM, 48 h) amounted to 48%; in series [1] (3 µM, 48 h), 90%. In addition, in series [1] (0.3 μM, 48 h, listed as BC5B), the “Normalised mean size of liver stage parasites, percentage of the solvent control” value is 47.88% and 39.55% and 51.73% and 68.26% and 63.53% and 38.56%. The “Parasite number per coverslip compared to the same concentration of primaquine” value in series [1] (0.3 or 3 µM, 48 h) is “significantly lower”. Besides, in series [2] (0.015241580 uM), the viability at 48 h, 0.0152416 µM was determined as 94.8%. The viability at 48 h, 0.0457247 µM in series [2] (0.045724740 uM) amounted to 94.9%. Besides, the viability at 48 h, 0.137174 µM in series [2] came out at 95.3%. In addition, the viability at 48 h, 0.411523 µM in series [2] (0.411522630 uM) was 94.5%.
With `CC(C)OC(=O)CCC(=O)O[C@H]1CC[C@H]2[C@@H]3CC=C4C[C@@H](O)CC[C@]4(C)[C@H]3CC[C@]12C` [C-17-link], the “Ring stage survival, growth” value in series [3] (700 nM, 6 h treatment, 66 h further growth, CAM3.IIREV susceptible) is “did not significantly impact the growth”. The “Ring stage survival, individual data points (Figure 4C)” value in series [3] (CAM3.11REV, replicate experiments, listed as HJB8a53) was 98.68 and 105.5 and 54.94 and 92.61.
As to `COc1cc(NC(C)CCCNC(=O)CCC(=O)OC(C)C)c2ncccc2c1` (stereo not drawn) [PQ-link], the viability at 48 h, 0.137174 µM in series [2] (Huh7 hepatoma cells) worked out at 99.3%.
`COc1cc(NC(C)CCCN)c2ncccc2c1` (stereo not drawn) [Primaquine, primaquine, reference compound]: the “Reduction of parasite size (area) compared to untreated parasites” value in series [1] (0.3 µM, 48 h) was “not at 0.3 µM”; in series [1] (3 µM, 48 h), 61%. Moreover, the “Normalised mean size of liver stage parasites, percentage of the solvent control” value in series [1] (0.3 μM, 48 h) was 100% and 99.34% and 108% and 106.3% and 110.6% and 86.33%. Also, in series [1] (0.3 μM, Assay 2, first replicate column, individual data points), the “Figure 3C - Individual Data Points (P. berghei liver stage parasite size, individual parasites)” value was 43.02 and 107.9 and 92.89 and 48.67 and 95.55 and 31.33 and 39.11 and 132.2 and 73.2 and 29.42.

Values taken from article PMC11251039, “Harnessing cholesterol uptake of malaria parasites for therapeutic applications” (EMBO Molecular Medicine, 2024).
